The text below walks through data of US8415305B2, “Use of cyclic depsipeptides to inhibit kallikrein 7” (Novartis AG, priority 2007, dated 2013).

The term IC50 denotes the point on the concentration scale where inhibition reaches its midpoint.

Sequence of human kallikrein 7 (hKallikrein7) (P49862 30-253): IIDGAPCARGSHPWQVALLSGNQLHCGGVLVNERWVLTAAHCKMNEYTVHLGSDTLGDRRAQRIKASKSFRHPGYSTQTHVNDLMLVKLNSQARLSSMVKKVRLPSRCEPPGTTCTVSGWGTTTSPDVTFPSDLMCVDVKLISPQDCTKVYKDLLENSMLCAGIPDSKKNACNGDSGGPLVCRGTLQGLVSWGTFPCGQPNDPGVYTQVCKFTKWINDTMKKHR

The target in this experiment is human kallikrein 7 (hKallikrein7) (Homo sapiens, UniProt P49862). The experiment can be described thus: Kallikrein 7 fluorescence-quenched substrate enzymatic assay (IC50). The format is biochemical. The protocol:
An “inhibitor” is a cyclic depsipeptide that inhibits an enzymatic reaction with a measure IC50 of less than […], for instance 50 μM, 30 μM, 20 μM or 10 μM. Particularly preferred are cyclic depsipeptides with an IC50 of less than 30 μM for human kallikrein 7, for instance cyclic depsipeptides with an IC50 of less than 10 μM, 1 μM, 100 nM, 50 nM, 40 nM, 30 nM, 20 nM, 10 nM, or less. IC50 for human kallikrein can be measured using the fluorescence-quenched substrate Ac-Glu-Asp(EDANS)-Lys-Pro-lle-Leu-Phe^Arg-Leu-Gly-Lys(DABCYL)-Glu-NH2 (SEQ ID NO 1) (where ^ indicates the scissile bond, identified by MS analysis) which can be purchased from Biosyntan (Berlin, Germany). Enzymatic reactions are conducted in 50 mM sodium citrate buffer at pH 5.6 containing 150 mM NaCl and 0.05% (w/v) CHAPS. For the determination of IC50 values the assay is performed at room temperature in 384-well plates. All final assay volumes are 30 μl. Test compounds are dissolved in 90% (v/v) DMSO/water and diluted in water (containing 0.05% (w/v) CHAPS) to 3-times the desired assay concentration. The 11 final compound concentrations are: 0.3 nM, 1 nM, 3 nM, 10 nM, 30 nM, 100 nM, 300 nM, 1 μM, 3 μM, 10 μM and 30 μM. For each assay, 10 μl water/CHAPS (±test compound) are added per well, followed by 10 μl protease solution (diluted with 1.5× assay buffer). The protease concentration in final assay solution is 0.2 nM (according to the enzyme concentrations determined by the Bradford method). After 1 hour of incubation at room temperature, the reaction is started by addition of 10 μl substrate solution (substrate dissolved in 1.5× assay buffer, final concentration is 2 μM). The effect of the compound on the enzymatic activity is obtained from the linear progress curves and determined from two readings, the first one taken directly after the addition of substrate (t=0 min) and the second one after 1 hour (t=60 min). The IC50 value is calculated from the plot of percentage of inhibition vs. inhibitor concentration using non-linear regression analysis software (XLfit, Vers. 4.0; ID Business Solution Ltd., Guildford, Surrey, UK).
The fluorescence-quenched substrate Ac-Glu-Asp(EDANS)-Lys-Pro-lle-Leu-Phe^Arg-Leu-Gly-Lys(DABCYL)-Glu-NH2 (SEQ ID NO1) (where ^ indicates the scissile bond, identified by MS analysis) is purchased from Biosyntan (Berlin, Germany) and kept as a 5 mM stock solution in DMSO at −20° C. All other chemicals are of analytical grade. […]
For fluorescence intensity (FI) measurements an Ultra Evolution reader (TECAN, Maennedorf, Switzerland) is used. The instrument is equipped with a combination of a 350 nm (20 nm bandwidth) and a 500 nm (25 nm bandwidth) bandpath filter for fluorescence excitation and emission acquisition, respectively. […]
Consider `CCC(C)[C@@H]1NC(=O)[C@H](Cc2ccc(O)cc2)N(C)C(=O)[C@H](C(C)CC)N2C=CC[C@H](NC(=O)[C@H](CC(C)C)NC(=O)[C@H](NC(=O)[C@H](CCC(N)=O)NC(=O)C(C)C)[C@@H](C)OC1=O)C2=O` (stereo partly shown) [formula (V)], for which the concentration for half-maximal inhibition (IC50) stood at 6 nM. For `CCC(C)[C@@H]1NC(=O)[C@H](Cc2ccc(O)cc2)N(C)C(=O)[C@H](C(C)CC)N2C(=O)C(CC[C@@H]2O)NC(=O)[C@H](CC(C)C)NC(=O)[C@H](NC(=O)[C@H](CCC(N)=O)NC(=O)C(C)C)[C@@H](C)OC1=O` (stereo partly shown) [formula (II)], the IC50 was determined as 1 nM.

For `CCC(C)C(=O)N[C@@H](CCC(N)=O)C(=O)NC1C(=O)N[C@@H](CC(C)C)C(=O)NC2CC[C@H](O)N(C2=O)[C@@H](C(C)CC)C(=O)N(C)[C@@H](Cc2ccc(O)cc2)C(=O)N[C@@H](C(C)CC)C(=O)O[C@@H]1C` (stereo partly shown) [formula (III)], the IC50 amounted to 0.4 nM. For the compound `CCC(C)C(=O)N[C@@H](CCC(N)=O)C(=O)N[C@H]1C(=O)N[C@@H](CC(C)C)C(=O)N[C@H]2CC=CN(C2=O)[C@@H](C(C)CC)C(=O)N(C)[C@@H](Cc2ccc(O)cc2)C(=O)N[C@@H](C(C)CC)C(=O)O[C@@H]1C` (stereo partly shown) [formula (IV)], the IC50 is 5 nM.
